Laboratory results as given in patent US9469650B2, “Melampomagnolide B derivatives” (BOARD OF TRUSTEES OF THE UNIVERSITY OF ARKANSAS, priority 2013, dated 2016).

How the values were obtained:
[1] = test system: CCRF-CEM; test: panel of 60 human tumor cell lines, growth inhibition (Leukemia)
[2] = test system: MOLT-4; test: as above
[3] = test system: SR; test: as above
[4] = test system: MDA-MB-435; test: panel of 60 human tumor cell lines, growth inhibition (Melanoma)
[5] = test system: SK-MEL-28; test: as above
[6] = test system: SK-MEL-5; test: as above; conditions: for Percent Growth: 8K-MEL-5
[7] = test system: SF-539; test: panel of 60 human tumor cell lines, growth inhibition (CNS Cancer)
[8] = test system: COLO 205; test: panel of 60 human tumor cell lines, growth inhibition (Colon Cancer)
[9] = test system: KM12; test: as above
[10] = test system: ACHN; test: panel of 60 human tumor cell lines, growth inhibition (Renal Cancer)
[11] = test system: TK-10; test: as above; conditions: for Percent Growth: TK-10
[12] = test system: HS 578T; test: panel of 60 human tumor cell lines, growth inhibition (Breast Cancer); conditions: for Percent Growth: HS 578T
[13] = test system: T-47D; test: as above; conditions: for Percent Growth: T-47D
[14] = test system: MDA-MB-468; test: as above
[15] = test system: OVCAR-8; test: panel of 60 human tumor cell lines, growth inhibition (Ovarian Cancer)
[16] = test system: NCI/ADR-RES; test: as above
[17] = test system: NCI-H23; test: panel of 60 human tumor cell lines, growth inhibition (Non-Small Cell Lung Cancer)
[18] = test system: NCI-H460; test: as above

C=C1C(=O)O[C@H]2[C@H]1CC/C(COC(=O)CCC(=O)NCc1ccc(Cl)nc1)=C\CC[C@@]1(C)O[C@@H]21 [JVM 96]
GI50 ([1]; Homo sapiens): 2.2 µM
CC50 ([1]; Homo sapiens, read-out: LC50): > 100 µM
IC (TGI) ([1]; Homo sapiens, read-out: TGI): 7.66 µM
Percent Growth ([1]; Log10 Concentration −4.0): −49%
Percent Growth ([1]; Log10 Concentration −5.0): −11%
Percent Growth ([1]; Log10 Concentration −6.0): 82%
Percent Growth ([1]; Log10 Concentration −7.0): 100%
Percent Growth ([1]; Log10 Concentration −8.0): 99%
GI50 ([2]; Homo sapiens, MOLT-4): 6.22 µM
CC50 ([2]; Homo sapiens, MOLT-4, read-out: LC50): > 100 µM
IC (TGI) ([2]; Homo sapiens, MOLT-4, read-out: TGI): 38.2 µM
Percent Growth ([2]; MOLT-4, Log10 Concentration −4.0): −25%
Percent Growth ([2]; MOLT-4, Log10 Concentration −5.0): 34%
Percent Growth ([2]; MOLT-4, Log10 Concentration −6.0): 110%
Percent Growth ([2]; MOLT-4, Log10 Concentration −7.0): 105%
Percent Growth ([2]; MOLT-4, Log10 Concentration −8.0): 97%
GI50 ([3]; Homo sapiens): 2.59 µM
CC50 ([3]; Homo sapiens, read-out: LC50): > 100 µM
IC (TGI) ([3]; Homo sapiens, read-out: TGI): 18 µM
Percent Growth ([3]; Log10 Concentration −4.0): −35%
Percent Growth ([3]; Log10 Concentration −5.0): 12%
Percent Growth ([3]; Log10 Concentration −6.0): 77%
Percent Growth ([3]; Log10 Concentration −7.0): 90%
Percent Growth ([3]; Log10 Concentration −8.0): 84%
GI50 ([4]; Homo sapiens, MDA-MB-435): 4.95 µM
CC50 ([4]; Homo sapiens, MDA-MB-435, read-out: LC50): 61.9 µM
IC (TGI) ([4]; Homo sapiens, MDA-MB-435, read-out: TGI): 20.4 µM
Percent Growth ([4]; MDA-MB-435, Log10 Concentration −4.0): −72%
Percent Growth ([4]; MDA-MB-435, Log10 Concentration −5.0): 32%
Percent Growth ([4]; MDA-MB-435, Log10 Concentration −6.0): 90%
Percent Growth ([4]; MDA-MB-435, Log10 Concentration −7.0): 89%
Percent Growth ([4]; MDA-MB-435, Log10 Concentration −8.0): 97%
GI50 ([5]; Homo sapiens, SK-MEL-28): 3.44 µM
CC50 ([5]; Homo sapiens, SK-MEL-28, read-out: LC50): 46 µM
IC (TGI) ([5]; Homo sapiens, SK-MEL-28, read-out: TGI): 14.8 µM
Percent Growth ([5]; SK-MEL-28, Log10 Concentration −4.0): −84%
Percent Growth ([5]; SK-MEL-28, Log10 Concentration −5.0): 17%
Percent Growth ([5]; SK-MEL-28, Log10 Concentration −6.0): 8.8. Percent
Percent Growth ([5]; SK-MEL-28, Log10 Concentration −7.0): 91%
Percent Growth ([5]; SK-MEL-28, Log10 Concentration −8.0): 92%
Percent Growth ([6]; Log10 Concentration −4.0): −89%
Percent Growth ([6]; Log10 Concentration −5.0): 53%
Percent Growth ([6]; Log10 Concentration −7.0): 98%
Percent Growth ([6]; Log10 Concentration −8.0): 97%
GI50 ([6]; Homo sapiens, SK-MEL-5): 10.5 µM
CC50 ([6]; Homo sapiens, SK-MEL-5, read-out: LC50): 53.1 µM
IC (TGI) ([6]; Homo sapiens, SK-MEL-5, read-out: TGI): 23.7 µM
GI50 ([7]; Homo sapiens, SF-539): 3.25 µM
CC50 ([7]; Homo sapiens, SF-539, read-out: LC50): 40.8 µM
IC (TGI) ([7]; Homo sapiens, SF-539, read-out: TGI): 12.2 µM
Percent Growth ([7]; SF-539, Log10 Concentration −4.0): −87%
Percent Growth ([7]; SF-539, Log10 Concentration −5.0): 8%
Percent Growth ([7]; SF-539, Log10 Concentration −6.0): 94%
Percent Growth ([7]; SF-539, Log10 Concentration −7.0): 85%
Percent Growth ([7]; SF-539, Log10 Concentration −8.0): 96%
Percent Growth ([8]; COLO 205, Log10 Concentration −4.0): −90%
Percent Growth ([8]; COLO 205, Log10 Concentration −5.0): 1%
Percent Growth ([8]; COLO 205, Log10 Concentration −6.0): 103%
Percent Growth ([8]; COLO 205, Log10 Concentration −7.0): 105%
Percent Growth ([8]; COLO 205, Log10 Concentration −8.0): 109%
GI50 ([8]; Homo sapiens, COLO 205): 3.3 µM
CC50 ([8]; Homo sapiens, COLO 205, read-out: LC50): 36.6 µM
IC (TGI) ([8]; Homo sapiens, COLO 205, read-out: TGI): 10.3 µM
GI50 ([9]; Homo sapiens, KM12): 17.7 µM
CC50 ([9]; Homo sapiens, KM12, read-out: LC50): 67.9 µM
TGI ([9]; KM12): 3.46E−5
Percent Growth ([9]; KM12, Log10 Concentration −4.0): −79%
Percent Growth ([9]; KM12, Log10 Concentration −5.0): 92%
Percent Growth ([9]; KM12, Log10 Concentration −6.0): 104%
Percent Growth ([9]; KM12, Log10 Concentration −7.0): 100%
Percent Growth ([9]; KM12, Log10 Concentration −8.0): 98%
GI50 ([10]; Homo sapiens): 4.45 µM
CC50 ([10]; Homo sapiens, read-out: LC50): 51.9 µM
IC (TGI) ([10]; Homo sapiens, read-out: TGI): 17.9 µM
Percent Growth ([10]; Log10 Concentration −4.0): −81%
Percent Growth ([10]; Log10 Concentration −5.0): 27%
Percent Growth ([10]; Log10 Concentration −6.0): 92%
Percent Growth ([10]; Log10 Concentration −7.0): 94%
Percent Growth ([10]; Log10 Concentration −8.0): 98%
GI50 ([11]; Homo sapiens, TK-10, TK-10): 3.83 µM
CC50 ([11]; Homo sapiens, TK-10, read-out: LC50): 37.9 to 50 µM
IC (TGI) ([11]; Homo sapiens, TK-10, read-out: TGI): 13.5 µM
Percent Growth ([11]; Log10 Concentration −4.0): −99%
Percent Growth ([11]; Log10 Concentration −5.0): 15%
Percent Growth ([11]; Log10 Concentration −6.0): 99%
Percent Growth ([11]; Log10 Concentration −7.0): 103%
Percent Growth ([11]; Log10 Concentration −8.0): 102%
Percent Growth ([12]; Log10 Concentration −4.0): −5%
Percent Growth ([12]; Log10 Concentration −5.0): 61%
Percent Growth ([12]; Log10 Concentration −6.0): 94%
Percent Growth ([12]; Log10 Concentration −7.0): 101%
Percent Growth ([12]; Log10 Concentration −8.0): 95%
GI50 ([12]; Homo sapiens, Hs-578T): 14.7 µM
CC50 ([12]; Homo sapiens, Hs-578T, read-out: LC50): > 100 µM
IC (TGI) ([12]; Homo sapiens, Hs-578T, read-out: TGI): 63.7 µM
GI50 ([13]; Homo sapiens, T47D): 3.52 µM
CC50 ([13]; Homo sapiens, T47D, read-out: LC50): 55.9 µM
IC (TGI) ([13]; Homo sapiens, T47D, read-out: TGI): 14.4 µM
Percent Growth ([13]; Log10 Concentration −4.0): −71%
Percent Growth ([13]; Log10 Concentration −5.0): 13%
Percent Growth ([13]; Log10 Concentration −6.0): 94%
Percent Growth ([13]; Log10 Concentration −7.0): 100%
Percent Growth ([13]; Log10 Concentration −8.0): 100%
GI50 ([14]; Homo sapiens, MDA-MB-468): 1.54 µM
CC50 ([14]; Homo sapiens, MDA-MB-468, read-out: LC50): 44.6 µM
IC (TGI) ([14]; Homo sapiens, MDA-MB-468, read-out: TGI): 7.38 µM
Percent Growth ([14]; MDA-MB-468, Log10 Concentration −4.0): −72%
Percent Growth ([14]; MDA-MB-468, Log10 Concentration −5.0): −10%
Percent Growth ([14]; MDA-MB-468, Log10 Concentration −6.0): 64%
Percent Growth ([14]; MDA-MB-468, Log10 Concentration −7.0): 94%
Percent Growth ([14]; MDA-MB-468, Log10 Concentration −8.0): 88%
GI50 ([15]; Homo sapiens, OVCAR-8): 12.5 µM
CC50 ([15]; Homo sapiens, OVCAR-8, read-out: LC50): 72 µM
IC (TGI) ([15]; Homo sapiens, OVCAR-8, read-out: TGI): 30 µM
Percent Growth ([15]; OVCAR-8, Log10 Concentration −4.0): −69%
Percent Growth ([15]; OVCAR-8, Log10 Concentration −5.0): 63%
Percent Growth ([15]; OVCAR-8, Log10 Concentration −6.0): 105%
Percent Growth ([15]; OVCAR-8, Log10 Concentration −7.0): 95%
Percent Growth ([15]; OVCAR-8, Log10 Concentration −8.0): 95%
GI50 ([16]; Homo sapiens): 31.1 µM
CC50 ([16]; Homo sapiens, read-out: LC50): > 100 µM
IC (TGI) ([16]; Homo sapiens, read-out: TGI): > 100 µM
Percent Growth ([16]; Log10 Concentration −4.0): 6%
Percent Growth ([16]; Log10 Concentration −5.0): 93%
Percent Growth ([16]; Log10 Concentration −6.0): 107%
Percent Growth ([16]; Log10 Concentration −7.0): 101%
Percent Growth ([16]; Log10 Concentration −8.0): 101%
GI50 ([17]; Homo sapiens, NCI-H23): 18.4 µM
CC50 ([17]; Homo sapiens, NCI-H23, read-out: LC50): > 100 µM
IC (TGI) ([17]; Homo sapiens, NCI-H23, read-out: TGI): 45.7 µM
Percent Growth ([17]; NCI-H23, Log10 Concentration −4.0): −43%
Percent Growth ([17]; NCI-H23, Log10 Concentration −5.0): 83%
Percent Growth ([17]; NCI-H23, Log10 Concentration −6.0): 103%
Percent Growth ([17]; NCI-H23, Log10 Concentration −7.0): 103%
Percent Growth ([17]; NCI-H23, Log10 Concentration −8.0): 96%
GI50 ([18]; Homo sapiens, NCI-H460): 21.3 µM
CC50 ([18]; Homo sapiens, NCI-H460, read-out: LC50): > 100 µM
IC (TGI) ([18]; Homo sapiens, NCI-H460, read-out: TGI): 53.9 µM
Percent Growth ([18]; NCI-H460, Log10 Concentration −4.0): −33%
Percent Growth ([18]; NCI-H460, Log10 Concentration −5.0): 91%
Percent Growth ([18]; NCI-H460, Log10 Concentration −6.0): 101%
Percent Growth ([18]; NCI-H460, Log10 Concentration −7.0): 102%
Percent Growth ([18]; NCI-H460, Log10 Concentration −8.0): 102%
